Source: ChEMBL document CHEMBL3351749, “Synthesis, in vitro antimicrobial and cytotoxic activities of new carbazole derivatives of ursolic acid” (Bioorg Med Chem Lett, 2015)
Converted amounts (≈) assume the structure as drawn.

How the values were obtained:
Bacillus subtilis = assay: Antimicrobial activity against Bacillus subtilis CGMCC1.1162 after 24 hrs by modified microdilution method; format: functional; conditions: CGMCC1.1162, 24 h
Staphylococcus aureus = assay: Antimicrobial activity against Staphylococcus aureus CGMCC1.1361 after 24 hrs by modified microdilution method; format: functional; conditions: CGMCC1.1361, 24 h
Escherichia coli = assay: Antimicrobial activity against Escherichia coli CGMCC1.1571 after 24 hrs by modified microdilution method; format: functional; conditions: CGMCC1.1571, 24 h
Pseudomonas fluorescens = assay: Antimicrobial activity against Pseudomonas fluorescens CGMCC1.1828 after 24 hrs by modified microdilution method; format: functional; conditions: CGMCC1.1828, 24 h
Aspergillus niger = assay: Antimicrobial activity against Aspergillus niger CGMCC3.316 after 48 hrs by modified microdilution method; format: functional; conditions: CGMCC3.316, 48 h
Candida albicans = assay: Antimicrobial activity against Candida albicans CGMCC2.2086 after 48 hrs by modified microdilution method; format: functional; conditions: CGMCC2.2086, 48 h
Candida tropicalis = assay: Antimicrobial activity against Candida tropicalis CGMCC2.3967 after 48 hrs by modified microdilution method; format: functional; conditions: CGMCC2.3967, 48 h
[1] = Cytotoxicity against human […] cells assessed as cell survival after 48 hrs by MTT assay; format: functional, cell-based
HepG2 = assay: Cytotoxicity against human HepG2 cells assessed as cell survival after 48 hrs by MTT assay; format: functional, cell-based; conditions: HepG2, 48 h
[2] = Cytotoxicity against human LO2 cells assessed as cell survival after 48 hrs by MTT assay; format: cell-based; conditions: L02, 48 h

Row | Structure (SMILES) | MIC (Bacillus subtilis) [µg/mL] | MIC (Staphylococcus aureus) [µg/mL] | MIC (Escherichia coli) [µg/mL] | MIC (Pseudomonas fluorescens) [µg/mL] | MIC (Aspergillus niger) [µg/mL] | MIC (Candida albicans) [µg/mL] | MIC (Candida tropicalis) [µg/mL] | IC50 [1] [µM] | IC50 (HepG2) [µM] | IC50 [2] [µM]
1 | C[C@H]1[C@H](C)CC[C@]2(C(=O)O)CC[C@]3(C)C(=CC[C@@H]4[C@@]5(C)Cc6c([nH]c7ccccc67)C(C)(C)[C@@H]5CC[C@]43C)[C@H]12 | 15.6 (≈ 29.6 µM) | 31.2 (≈ 59.1 µM) | 15.6 (≈ 29.6 µM) | 15.6 (≈ 29.6 µM) | > 100 | > 100 | > 100 | 40.4 | 25.8 | –
2 | C[C@H]1[C@H](C)CC[C@]2(C(=O)O)CC[C@]3(C)C(=CC[C@@H]4[C@@]5(C)Cc6c([nH]c7ccc(F)cc67)C(C)(C)[C@@H]5CC[C@]43C)[C@H]12 | 15.6 (≈ 28.6 µM) | 15.6 (≈ 28.6 µM) | 15.6 (≈ 28.6 µM) | 31.2 (≈ 57.2 µM) | 62.5 (≈ 115 µM) | 62.5 (≈ 115 µM) | > 100 | 16.3 | 15.2 | –
3 | Cc1ccc2[nH]c3c(c2c1)C[C@]1(C)[C@H]2CC=C4[C@@H]5[C@@H](C)[C@H](C)CC[C@]5(C(=O)NCCCN(C)C)CC[C@@]4(C)[C@]2(C)CC[C@H]1C3(C)C | 15.6 (≈ 24.9 µM) | 31.2 (≈ 49.8 µM) | 31.2 (≈ 49.8 µM) | 31.2 (≈ 49.8 µM) | 62.5 (≈ 99.8 µM) | > 100 | > 100 | 1.08 | 1.26 | 5.75
4 | C[C@H]1[C@H](C)CC[C@]2(C(=O)O)CC[C@]3(C)C(=CC[C@@H]4[C@@]5(C)CCC(=O)C(C)(C)[C@@H]5CC[C@]43C)[C@H]12 [URSONIC ACID] | 31.2 (≈ 68.6 µM) | 62.5 (≈ 137 µM) | 31.2 (≈ 68.6 µM) | 62.5 (≈ 137 µM) | > 100 | > 100 | > 100 | > 100 | > 100 | –
